Like-named read-outs stand apart in the source and are kept apart here.
How the values were obtained:
[1] = tested on: B. stearothermophilus α-glucosidase; assay: Enzymatic hydrolysis of α-TUGlc; type: biochemical; conditions: 60° C., growth media, 10 μL of 246 μM substrate, ex 450 nm, em 502 nm
Description: Commercially prepared B. stearothermophilus α-glucosidase (Sigma Chemical Company, St. Louis, Mo.) was used as 100 units per mL (1 unit produces 1 μmole of product per minute). 10 μL of this solution was added to […] of growth media to simulate the actual environment of the bacterial spores. This enzyme and media mixture was then incubated for 7 minutes at 60° C., at which time 10 μL of 246 μM α-TUGlc (prepared as described in Example 4) was added. The reaction was monitored on the SPEX Fluorolog™ spectrofluorimeter by exciting at 450 nm with emission at 502 nm. […] Variation in fluorescence may be due to variation in activity of the bacterial enzyme per mL of mixture. The assays of examples 7 and 8 confirmed the presence of the α-glucoside derivative.

[2] = tested on: B. stearothermophilus spores; assay: Bacterial hydrolysis of α-TUGlc; type: cell-based, Bacillus stearothermophilus; conditions: spores 1×10^8 cells/mL diluted in growth media, 56° C., 10 μL of 246 μM substrate
Description: 100 μL of B. stearothermophilus spores (initial cone. 1×10^8 cells/mL) was added to 890 μL of growth media and the mixture was incubated at 56° C. for 7 minutes. […] This increase in fluorescence indicates enzymatic cleavage of the substrate. However, because the spores have both β- and α-glucosidase activity, the stereochemistry of the substrate can not be judged.

[3] = tested on: β-glucosidase; assay: Hand-held LED probe, cleavage of β-TUGlc; type: biochemical; conditions: 0.125 units β-glucosidase, pH 7.6 PBS, GaN LED
Description: A solution of 100 μL of 1.0 mM β-TUGlc (Example 1) in DMF was combined with 840 μL of 7.6 pH PBS in a 1 mL cuvette, and the volume was adjusted to 990 μL by the addition of […] of 30 mM aq. MgCl. The mixture was irradiated using a GaN LED (λmax=480 nm, Nichia Chemical Industries, Ltd., Anan, J P) mounted in a compact, hand-held probe, and 10 μL of β-glucosidase (0.125 units in pH 7.6 PBS) was added. Within ten seconds, a strong fluorescent signal could be seen in the cuvette.

[4] = tested on: B. stearothermophilus spores; assay: Bacillus stearothermophilus detection with β-TUGlc; type: cell-based
Description: B. stearothermophilus spores (commercially available as ATCC 7953 or ATCC 8005 from American Type Culture Collection, Rockville, Md.) were diluted in growth media to a concentration of 1.3×10^8 cells per mL. Dilutions to 10^7 […] and 10^6 cells/mL were prepared using 50 mM sodium phosphate, pH 7.6. Aliquots of these solutions were incubated with β-TUGlc (2×10^−6 M) at 56° C. in a fluorimeter and fluorescence was monitored with excitation at 450 nm and emission at 502 nm. […] In a similar manner, spore solutions that had been steam-sterilized for 20 minutes at 121° C. were mixed with the β-TUGlc. […] The growth medium for this Example was prepared by dissolution of trypticase peptone (5 g), phytone peptone (12 g) and L-alanine (17 mg) in 1 liter of water.

[5] = tested on: β-glucosidase; assay: LED-based monitoring of enzymatic cleavage of β-TUGlc; type: biochemical
Description: A 10× objective was used for large detection zones (e.g., solution cuvettes, microwell arrays) and a 40× objective was used for small samples (e.g., 50 μm wide channels in microfluidic chips). […] (Model #04 OAS 016; 0.65 N.A.).
Two stock solutions of β-glucosidase (Sigma Chemical Co., St. Louis, Mo.) were prepared in pH 7.6 phosphate buffered saline (PBS): (a) 1 enzyme unit/20 μL and (b) 1 enzyme unit/400 μL, where one enzyme unit liberates 1 μMole of product per minute when salicin is the substrate. Required amounts of the stock solutions were diluted with 980 μL of PBS to create samples of 0.5, 0.125, 0.0625, 0.025, and 0.0125 units per mL, represented in FIG. 17a by traces 1 through 5, respectively. These samples were incubated for 7 minutes at 37° C., then treated with 5 μL of 24.6 mM β-TUGlc in DMF (Example 1) such that the initial concentration of β-TUGlc was 123 μM.
Fluorescence resulting from cleavage of the substrate was monitored in a thermostatted cuvette at 37 ° C. using the testbed described in Example 9 with a PMT gain setting of 822 Amperes/Watt. Fluorescent response for each enzyme concentration was monitored for three minutes. FIG. 17b is a plot of the initial rates of reaction obtained from the data in FIG. 17a.

[6] = Autoclave stability of β-TUGlc; type: physicochemical; conditions: 0.1 g/mL in B. subtilis growth media and pH 7.6 PBS; 20 minutes at 121° C., then 15 minutes at 132° C.
Description: Solutions of 0.1 g/mL of β-TUGlc (Example 1) in B. subtilis growth media and in pH 7.6 phosphate buffered saline (PBS) were heated in an autoclave for 20 minutes at 121° C. Fluorescence spectrum on excitation at 362 nm was obtained. The sample was heated a second time in an autoclave for 15 minutes at 132° C., and the fluorescence spectrum was obtained. […] Therefore, β-TUGlc was sufficiently robust to be used in a sterilization indicator format such as a Attest™ Rapid Readout Biological Indicator (3M Company, St. Paul, Minn.), wherein the fluorogenic enzyme substrate and the biological spore are both exposed to the conditions within the steam sterilizer.

[7] = tested on: Bacillus subtilis spores; assay: LED-based monitoring of bacterial cleavage of β-TUGlc; type: cell-based
Description: LED 110, having a maximum emission at 475 nm (Model HP HLMP CB15, Hewlett Packard Instruments, Palo Alto, Calif.), was driven in a pulsed mode with a 10% duty cycle by computer-controlled pulse generator 132 (Hewlett Packard Instruments). Light from LED 110 was introduced into filter block 130 (Model I3, Leica Microsystems, Inc., Deerfield, Ill.), comprising excitation filter 112 (model BP, 450-490 nm), dichroic mirror 114 (model RKP, reflection short pass at 510 nm), and emission filter 120 (model LP, 515 nm) and focused on an illumination region of sample 118 by objective lens 116. The illumination region was designed to accommodate a solution sample, a microfluidic chip, or other sample that might contain β-TUGlc to be enzymatically cleaved. A 10× objective was used for large detection zones (e.g., solution cuvettes, microwell arrays) and a 40× objective was used for small samples (e.g., 50 μm wide channels in microfluidic chips). Both objective lenses were obtained from Melles Griot, Irvine, Calif. […] Return fluorescence was passed through objective lens 116, reflected from dichroic mirror 114 through emission filter 120 and iris diaphragm 122, and detected with photomultiplier tube 124 (PMT Model H5783, Hamamatsu Corp., Bridgewater, N.J.) having an adjustable gain between 0 and 70,000 Amperes/Watt. PMT module 124 was powered by a 15 volt power supply (not shown). […]

[8] = Fluorescence excitation and emission spectra; conditions: for λem (nm) / λex (nm): anion of hydrolysis product
Description: Fluorescence measurements were made using a SPEX Fluorolog™ Series spectrofluorimeter (SPEX Industries, Inc., Edison, N.J.).
By using an excitation source filter centered in this spectral window and an emission source filter centered between 480 nm and 600 nm, the formation of TU anion can be measured as a product of the enzymatic cleavage of β-TUGlc without interference from β-TUGlc fluorescence.

[9] = pKa determination from fluorescence emission as a function of pH
Description: Fifty microliters of this solution were then diluted to 4.00 mL in a series of 50 mM sodium phosphate buffer solutions, each having a different pH, corresponding to the traces of FIG. 7a, as shown in Table 1. The final concentration of TU was 3.08×10^−4 M.

[10] = molecular target: β-galactosidase from E. coli (Escherichia coli, UniProt P00722); conditions: pH 7.6, 37° C., excitation 450 nm, 1, 10 and 20 μM substrate
β-galactosidase from E. coli, sequence (P00722 2-1024): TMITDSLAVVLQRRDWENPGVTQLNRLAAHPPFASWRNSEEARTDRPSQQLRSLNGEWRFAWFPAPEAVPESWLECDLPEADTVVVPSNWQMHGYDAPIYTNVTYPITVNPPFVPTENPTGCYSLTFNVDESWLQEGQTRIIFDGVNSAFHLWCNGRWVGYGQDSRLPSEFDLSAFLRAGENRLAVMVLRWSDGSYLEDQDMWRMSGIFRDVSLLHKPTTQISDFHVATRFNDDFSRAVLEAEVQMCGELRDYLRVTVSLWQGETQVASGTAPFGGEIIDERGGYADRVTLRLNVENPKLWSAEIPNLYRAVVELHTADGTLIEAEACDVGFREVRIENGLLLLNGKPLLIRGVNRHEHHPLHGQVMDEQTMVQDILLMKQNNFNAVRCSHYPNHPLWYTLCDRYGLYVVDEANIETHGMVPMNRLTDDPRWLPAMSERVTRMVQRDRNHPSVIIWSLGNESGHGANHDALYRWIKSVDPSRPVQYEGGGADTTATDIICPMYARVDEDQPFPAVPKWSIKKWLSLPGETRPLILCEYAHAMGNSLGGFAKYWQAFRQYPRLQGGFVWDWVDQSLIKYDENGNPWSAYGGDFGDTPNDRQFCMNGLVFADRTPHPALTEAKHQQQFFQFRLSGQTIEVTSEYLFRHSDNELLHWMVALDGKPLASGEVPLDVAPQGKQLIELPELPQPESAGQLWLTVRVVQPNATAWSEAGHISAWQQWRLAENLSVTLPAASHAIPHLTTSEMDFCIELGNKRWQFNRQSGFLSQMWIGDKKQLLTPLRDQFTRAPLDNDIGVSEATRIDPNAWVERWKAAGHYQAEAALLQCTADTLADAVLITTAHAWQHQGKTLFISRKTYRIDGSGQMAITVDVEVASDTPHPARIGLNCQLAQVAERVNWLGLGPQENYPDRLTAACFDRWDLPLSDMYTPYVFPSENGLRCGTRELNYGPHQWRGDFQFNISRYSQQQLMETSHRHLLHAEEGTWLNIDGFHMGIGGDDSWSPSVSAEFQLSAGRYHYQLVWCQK
Description: β-Galactosidase activity was continuously assayed at pH 7.6 in a fluorometer using front face detection.
Samples were excited at 450 nm and emission was monitored at 502 nm.
Assay solutions were prepared as follows: a 100 mM sodium phosphate solution, pH 7.6, a 30 mM MgCl2 solution, a solution of β-TUGal (3.08×10^−2 M, Example 1) in N,N-dimethyl formamide (DMF), and a solution of β-galactosidase (1.0 units/μl) from E. coli (Grade VIII, Sigma Chemical Co., St. Louis, Mo.) reconstituted in 100 mM sodium phosphate, pH 7.3.
All reagents were kept on ice until their time of use. From them, two solutions were prepared: the substrate solution and the enzyme solution. The substrate solution was prepared in a sample vial by further dilution of the β-TUGal solution in DMF. The preparations gave final concentrations of 1, 10, and 20 μM β-TUGal. In a separate cuvette, the phosphate buffer was combined with 150 μL MgCl2 solution and the appropriate amount of reconstituted β-galactosidase to make the enzyme solution. This was then incubated for seven minutes at 37° C. Following incubation, the substrate solution was added and the fluorescence was measured by front face detection over a 10-minute period at 37° C.

[11] = tested on: E. coli P18 cells; assay: Escherichia coli detection with β-TUGal in growth media (microwell fluorescence); type: cell-based
Description: E. coli is known to secrete extracellular galactosidase. In a selective growth media, E. coli can be detected based on development of this enzyme activity. Varying concentrations of 3-(2-thienyl) umbelliferyl-β-D-galactoside (β-TUGal) indicator were assayed against three known concentrations of E. coli P 18 cells: ca 10^3, 10^2, and 10 cells/mL. Viable cell counts were determined using Petrifilm (3M, St. Paul, Minn.). Adjusting for the dilutions used in the fluorescence detection experiments, cell counts were approximately 56, 5.6, and 0.56 cells per well. A fresh overnight culture of E. coli P18 was prepared and grown in tryptic soy broth (TSB, Sigma Chemical Co., St. Louis, Mo.). Ten μL of this stock culture was diluted into […] of Butterfields phosphate buffer (Hardy Diagnostics, Santa Maria, Calif.) to give a 10,000 fold dilution. Next, 10 mL of this new solution was diluted into 90 mL of phosphate buffer to give an approximate E. coli concentration of 10^3 cells/mL. Two more dilutions in this same manner yielded cultures of 10^2 and 10 cells/mL. […] Each of the three lowest dilutions of the E. coli culture were counted on Petrifilm by plating 1 mL of each and growing overnight at 37° C.

[12] = 5 μM solution in phosphate buffered saline at pH 7.6
[13] = 5 μM solution in 50 mM PBS at pH 10.0

O=c1oc2cc(OC3OC(CO)C(O)C(O)C3O)ccc2cc1-c1cccs1 (stereo not drawn) [α-TUGlc]
time at which Vmax appears [1]: about 2 minutes
fluorescence at 502 nm after substrate addition [2]: Fluorescence increased rapidly in the first 20 minutes

O=c1oc2cc(O[C@@H]3O[C@H](CO)[C@@H](O)[C@H](O)[C@H]3O)ccc2cc1-c1cccs1 [β-TUGlc, 3-(2-thienyl)-umbelliferyl-7-β-D-glucoside]
time to strong fluorescent signal [3]: ten
time until fluorescence changes were evident ([4]; 10^7 and 10^6 cells/mL, 2×10^−6 M substrate, 56° C., ex 450 nm, em 502 nm): less than 10 minutes
cleavage by steam-sterilized spore solutions ([4]; spores steam-sterilized 20 minutes at 121° C.): no enzymatic cleavage reaction
time to significant, detectable fluorescent signal ([5]; 0.5 enzyme units, 123 μM substrate, 37° C., pH 7.6 PBS): less than 5 seconds
fluorescent signal with steam-sterilized enzyme ([5]; enzyme solutions steam-sterilized at 121° C. for 20 minutes): no time-dependent changes in the fluorescent signal
fraction hydrolyzed during each autoclave cycle [6]: approximately 10%
time to presumptive identification of B. subtilis after mixing ([7]; 10^8 spores/mL, 37° C., PMT gain 88 Amperes/Watt): less than five
fluorescent signal with steam-sterilized control ([7]; steam-sterilized at 121° C. for 20 minutes): no time-dependent changes in the fluorescent signal
emission maximum [8, 12]: ~460 nm
excitation maximum [8, 12]: ~380 nm

O=c1oc2cc(O)ccc2cc1-c1nc2ccccc2o1 [3-(2-benzoxazolyl) umbelliferyl anion]
pKa [9]: 6.56
λem (nm) [8]: 471 nm
λex (nm) [8]: 425 nm

O=c1oc2cc(O)ccc2cc1-c1nc2ccccc2s1 [3-(2-benzothiazolyl) umbelliferyl anion]
pKa [9]: 6.79
λem (nm) [8]: 488 nm
λex (nm) [8]: 447 nm

O=c1oc2cc(O)ccc2cc1-c1cccs1 [3-(2-thienyl) umbelliferyl anion, 3-(2-thienyl) umbelliferone]
pKa ([9]; umbelliferone hydrolysis product): 7.57±0.03
emission maximum [8, 13]: ~502 nm
excitation maximum [8, 13]: ~410 nm
λem (nm) [8]: 502 nm
λex (nm) [8]: 410 nm

O=c1oc2cc(O[C@@H]3O[C@H](CO)[C@H](O)[C@H](O)[C@H]3O)ccc2cc1-c1cccs1 [β-TUGal, 3-(2-thienyl)-umbelliferyl-7-β-D-galactoside]
fluorescence at 502 nm on addition of β-galactosidase [10]: rapid increase in fluorescence
positive results ([11]; 0.56 cell concentration): 3 of the 10 concentrations showed positive results
fastest time to positive result ([11]; 56 cells per well, 62 μM indicator): 6.5 h

O=c1oc2cc(O)ccc2cc1-c1nc2ccccc2[nH]1 [3-(2-benzoimidazolyl) umbelliferyl anion]
pKa [9]: 7.01
λem (nm) [8]: 477 nm
λex (nm) [8]: 420 nm

— patent publication US6566508B2, “Fluorogenic compounds and uses therefor” (3M Innovative Properties Company, priority 2000, dated 2003)
